Tests used:
[1] = Selectivity for PI3Kgamma over PI3Kdelta
[2] = Selectivity for PI3Kgamma over PI3Kbeta
[3] = Selectivity for PI3Kgamma over PI3Kalpha
[4] = Inhibition of bovine recombinant PI3Kgamma expressed in baculovirus-infected Sf21 cells; design: species or system Bos taurus
[5] = target: T1, Phosphatidylinositol 4,5-bisphosphate 3-kinase catalytic subunit beta isoform (Homo sapiens, UniProt P42338); test: Inhibition of human recombinant PI3Kbeta expressed in baculovirus-infected Sf21 cells
Target sequence in this assay (P42338 whole entry, canonical isoform): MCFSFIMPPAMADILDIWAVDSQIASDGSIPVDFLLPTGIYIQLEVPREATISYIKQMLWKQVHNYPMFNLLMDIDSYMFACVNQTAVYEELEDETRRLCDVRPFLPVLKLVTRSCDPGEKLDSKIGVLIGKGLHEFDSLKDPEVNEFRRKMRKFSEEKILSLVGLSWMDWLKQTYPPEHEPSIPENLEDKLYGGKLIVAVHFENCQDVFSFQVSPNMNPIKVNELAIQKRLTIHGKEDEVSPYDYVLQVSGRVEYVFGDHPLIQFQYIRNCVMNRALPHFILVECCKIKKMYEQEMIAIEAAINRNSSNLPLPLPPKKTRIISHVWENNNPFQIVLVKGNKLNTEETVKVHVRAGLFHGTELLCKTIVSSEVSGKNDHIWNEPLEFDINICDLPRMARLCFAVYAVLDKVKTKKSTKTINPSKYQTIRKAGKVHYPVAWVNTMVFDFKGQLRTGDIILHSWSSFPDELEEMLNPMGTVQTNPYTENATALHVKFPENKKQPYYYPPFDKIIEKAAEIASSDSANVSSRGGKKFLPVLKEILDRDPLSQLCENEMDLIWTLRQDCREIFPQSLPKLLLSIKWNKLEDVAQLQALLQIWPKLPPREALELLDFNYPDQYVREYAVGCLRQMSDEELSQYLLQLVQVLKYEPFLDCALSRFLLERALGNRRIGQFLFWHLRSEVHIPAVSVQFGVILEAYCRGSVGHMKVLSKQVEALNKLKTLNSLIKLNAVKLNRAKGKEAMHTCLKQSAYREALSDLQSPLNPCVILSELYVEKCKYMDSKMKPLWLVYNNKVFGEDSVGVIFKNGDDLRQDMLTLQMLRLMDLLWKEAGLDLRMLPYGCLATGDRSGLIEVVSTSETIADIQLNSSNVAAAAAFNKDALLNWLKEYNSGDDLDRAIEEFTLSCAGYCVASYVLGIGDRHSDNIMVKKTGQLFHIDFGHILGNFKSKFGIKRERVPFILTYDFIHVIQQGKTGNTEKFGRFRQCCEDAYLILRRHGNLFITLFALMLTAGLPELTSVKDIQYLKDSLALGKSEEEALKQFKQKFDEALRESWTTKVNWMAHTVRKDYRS

[6] = target: Phosphatidylinositol 4,5-bisphosphate 3-kinase catalytic subunit alpha isoform (Mus musculus, UniProt P42337); test: Inhibition of mouse recombinant PI3Kalpha expressed in baculovirus-infected Sf21 cells
[7] = target: T2, Phosphatidylinositol 4,5-bisphosphate 3-kinase catalytic subunit delta isoform (Homo sapiens, UniProt O00329); test: Inhibition of recombinant PI3Kdelta expressed in baculovirus-infected Sf21 cells
T2 sequence (O00329 whole entry): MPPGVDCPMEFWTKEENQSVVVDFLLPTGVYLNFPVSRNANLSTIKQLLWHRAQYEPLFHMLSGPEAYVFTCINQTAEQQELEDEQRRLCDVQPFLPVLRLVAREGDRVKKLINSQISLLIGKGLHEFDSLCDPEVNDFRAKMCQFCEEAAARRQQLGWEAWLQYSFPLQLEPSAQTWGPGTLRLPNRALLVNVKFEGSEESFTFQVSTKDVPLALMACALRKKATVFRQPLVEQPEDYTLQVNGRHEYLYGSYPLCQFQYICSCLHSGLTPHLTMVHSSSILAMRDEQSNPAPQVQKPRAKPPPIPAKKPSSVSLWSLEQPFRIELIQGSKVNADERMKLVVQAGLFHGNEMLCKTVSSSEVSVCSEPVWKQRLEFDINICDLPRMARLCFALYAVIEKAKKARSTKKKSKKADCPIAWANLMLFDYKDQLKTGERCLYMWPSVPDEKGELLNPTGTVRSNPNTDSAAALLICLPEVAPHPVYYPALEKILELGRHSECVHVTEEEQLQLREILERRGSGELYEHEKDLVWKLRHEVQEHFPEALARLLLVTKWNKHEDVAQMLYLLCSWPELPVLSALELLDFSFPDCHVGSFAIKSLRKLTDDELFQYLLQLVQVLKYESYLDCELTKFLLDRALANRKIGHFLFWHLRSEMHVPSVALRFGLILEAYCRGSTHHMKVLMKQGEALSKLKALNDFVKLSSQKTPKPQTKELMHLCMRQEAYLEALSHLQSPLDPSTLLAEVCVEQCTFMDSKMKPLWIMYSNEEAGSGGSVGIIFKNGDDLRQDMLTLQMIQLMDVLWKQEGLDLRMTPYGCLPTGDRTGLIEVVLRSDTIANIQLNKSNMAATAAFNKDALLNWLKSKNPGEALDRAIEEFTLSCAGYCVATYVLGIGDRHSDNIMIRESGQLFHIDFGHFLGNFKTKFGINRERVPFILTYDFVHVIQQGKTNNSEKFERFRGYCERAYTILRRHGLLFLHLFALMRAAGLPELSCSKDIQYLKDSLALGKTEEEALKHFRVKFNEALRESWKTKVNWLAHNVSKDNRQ

[8] = target: T1, Phosphatidylinositol 4,5-bisphosphate 3-kinase catalytic subunit beta isoform; test: Inhibition of human recombinant PI3Kbeta expressed in baculovirus-infected Sf21 cells at 100 uM
Target sequence in this assay (P42338 whole entry, looked up, canonical isoform): as the sequence (P42338 whole entry, canonical isoform) above

[9] = target: T3, Phosphatidylinositol 4,5-bisphosphate 3-kinase catalytic subunit delta isoform (Homo sapiens) (UniProt O00329); test: Inhibition of recombinant PI3Kdelta expressed in baculovirus-infected Sf21 cells at 100 uM
T3 sequence (whole entry): T2 sequence (O00329 whole entry)

[10] = Inhibition of bovine recombinant PI3Kgamma expressed in baculovirus-infected Sf21 cells at 100 uM; conditions: Bos taurus
[11] = target: Phosphatidylinositol 4,5-bisphosphate 3-kinase catalytic subunit alpha isoform (Mus musculus) (UniProt P42337); test: Inhibition of mouse recombinant PI3Kalpha expressed in baculovirus-infected Sf21 cells at 100 uM
Sequence of Phosphatidylinositol 4,5-bisphosphate 3-kinase catalytic subunit alpha isoform (Mus musculus) (P42337 whole entry, canonical isoform): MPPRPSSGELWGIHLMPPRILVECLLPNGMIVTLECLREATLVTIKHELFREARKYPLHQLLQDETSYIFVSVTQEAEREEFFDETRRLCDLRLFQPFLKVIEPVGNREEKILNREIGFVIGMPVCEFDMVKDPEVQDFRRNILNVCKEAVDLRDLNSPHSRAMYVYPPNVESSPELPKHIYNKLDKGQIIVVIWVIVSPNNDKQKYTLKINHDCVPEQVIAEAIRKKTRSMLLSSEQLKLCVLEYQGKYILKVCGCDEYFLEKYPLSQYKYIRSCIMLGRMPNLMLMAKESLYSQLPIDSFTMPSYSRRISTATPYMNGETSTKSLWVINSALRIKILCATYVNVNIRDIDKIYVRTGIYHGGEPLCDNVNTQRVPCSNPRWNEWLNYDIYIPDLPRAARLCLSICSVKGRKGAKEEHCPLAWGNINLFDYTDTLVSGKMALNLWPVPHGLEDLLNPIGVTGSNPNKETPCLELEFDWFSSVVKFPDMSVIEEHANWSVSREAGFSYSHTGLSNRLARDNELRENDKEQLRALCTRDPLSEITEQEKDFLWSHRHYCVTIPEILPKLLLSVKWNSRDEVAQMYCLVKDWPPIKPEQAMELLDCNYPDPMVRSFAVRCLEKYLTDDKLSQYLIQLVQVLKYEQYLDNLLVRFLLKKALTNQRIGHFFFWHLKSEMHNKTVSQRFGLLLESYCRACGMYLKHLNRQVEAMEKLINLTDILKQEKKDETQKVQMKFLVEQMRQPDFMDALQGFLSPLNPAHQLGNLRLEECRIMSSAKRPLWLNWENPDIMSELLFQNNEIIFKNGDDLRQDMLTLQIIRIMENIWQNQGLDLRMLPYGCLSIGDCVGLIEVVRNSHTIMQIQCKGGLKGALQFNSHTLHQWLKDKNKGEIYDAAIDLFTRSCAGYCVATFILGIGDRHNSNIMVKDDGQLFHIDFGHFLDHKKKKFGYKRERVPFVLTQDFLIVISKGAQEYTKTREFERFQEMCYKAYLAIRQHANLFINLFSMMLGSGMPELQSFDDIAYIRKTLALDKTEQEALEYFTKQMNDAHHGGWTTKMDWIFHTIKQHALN

Sequence of Phosphatidylinositol 4,5-bisphosphate 3-kinase catalytic subunit alpha isoform (P42337 whole entry, canonical isoform): as above

Structure (SMILES) | Ratio [1] | Ratio [2] | Ratio [3] | IC50 [4] | IC50 [5] | IC50 [6] | IC50 [7] | inhibition [8] | inhibition [9] | inhibition [10] | inhibition [11]
O=C1NC(=O)/C(=C/c2ccc3nccnc3c2)S1 | > 30 | > 30 | 7.5 | – | – | – | – | – | – | – | –
O=C(CCn1c(=O)oc2cc(Cl)ccc21)Nc1ccccc1 | – | – | – | 6 µM | 12 µM | 19 µM | > 100 µM | > 40% | > 40% | > 40% | > 40%
Cc1ccc2cc3c(OC(=O)COc4ccccc4)nn(C)c3nc2c1 | – | – | – | 16 µM | > 100 µM | 38 µM | 47 µM | > 40% | > 40% | > 40% | > 40%
O=c1cc(N2CCOCC2)oc2c(-c3ccccc3)cccc12 [LY-294002] | – | – | – | – | – | – | – | > 40% | > 40% | > 40% | > 40%
O=c1oc2cc(O)ccc2cc1-c1nc2ccccc2s1 | – | – | – | 12 µM | 14 µM | 3 µM | 4 µM | > 40% | > 40% | > 40% | > 40%
COc1nc(-c2ccccc2)ccc1-c1noc(-c2ccncc2)n1 | – | – | – | > 100 µM | > 100 µM | 78 µM | – | > 40% | > 40% | > 40% | > 40%
COC(=O)c1ccc(CSc2ncnc3sc(C)c(C)c23)o1 | – | – | – | 71 µM | > 100 µM | > 100 µM | > 100 µM | > 40% | > 40% | > 40% | > 40%
COc1cccc(-c2nc(-c3cc4cc(OC)ccc4[nH]c3=O)no2)c1 | – | – | – | 4 µM | 3 µM | 0.9 µM | 0.9 µM | > 40% | > 40% | > 40% | > 40%
COc1ccccc1-c1nc(-c2cc3cc(C)ccc3[nH]c2=O)no1 | – | – | – | 75 µM | – | > 100 µM | – | > 40% | > 40% | > 40% | > 40%

Source: ChEMBL document CHEMBL1156056, “Phosphoinositide-3-kinase (PI3K) inhibitors: identification of new scaffolds using virtual screening” (Bioorg Med Chem Lett, 2009)
